Data taken from the METLIN SMRT retention time set (Domingo-Almenara et al. 2019).

Assay: gradient 5% acetonitrile 3 min, to 50% in 2 min, to 85% in 15 min, held 3 min, 100 µL/min
Settings: column: Zorbax Extend-C18 2.1 x 50 mm; eluents: water / acetonitrile, 0.1% formic acid
Procedure, shortened: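 Standards, all pure, were combined into mixtures of ~100 molecules and run at 100 μL/min on a Zorbax Extend-C18 column (2.1 × 50 mm, 1.8 μm) with water and acetonitrile, each containing 0.1% formic acid. A coupled quadrupole time-of-flight mass spectrometer operated in positive and negative ionization mode. Retention time values come from computationally picked adduct peaks, each inspected manually.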

RP-LC retention time | SMILES
615 s | Cc1ccc(C(=O)N2C[C@@H]3C[C@H]2C[C@@H]3NS(=O)(=O)c2ccccc2)cn1
954 s | Cn1cnc2c(C(=O)Nc3ccc(Cl)cc3)nn(-c3ccccc3)c2c1=O
736 s | COc1cccc(CNC(=O)C2CCCN(c3ncnc4c3nc3n4CCCCC3)C2)c1 (configuration not stated)
1100 s | CCCn1cc(C(=O)Nc2ccc3c(c2)OCO3)c(=O)c2ccc(C)nc21
583 s | Cc1ncoc1C(=O)NCC1Cn2cccc2C(=O)N1C (configuration not stated)
940 s | Cc1ccc(CNC(=O)Cn2cccc2-c2nnc(-c3ccccc3)o2)cc1
569 s | Cc1ccc(OCCOCC(O)CN(CCO)CCO)cc1C (configuration not stated)
884 s | CC(C)CNC(=O)C1CCN(c2nc3ccsc3c(=O)n2Cc2ccc(F)cc2)CC1
586 s | Cn1cnc(S(=O)(=O)N2CC[C@@H]3COCCN(Cc4ccccc4)[C@@H]3C2)c1
555 s | O=C(c1ccn2c(-c3ccccc3Br)nnc2c1)N1CCN(c2ccccn2)CC1
622 s | CCCc1cc(N2CCN(C(=O)c3ccc4c(c3)OCO4)CC2)nc2nncn12
732 s | COc1ccccc1CNC1=NCCNC12CCN(S(=O)(=O)c1ccccc1C)CC2
573 s | Cc1nc(C)c(C(=O)N2CC[C@H](CO)[C@H](NC(=O)C3CC3)C2)s1
795 s | COc1ccc(NC(=O)C2CCN(C(=O)C3Sc4ccccc4NC3=O)CC2)cc1Cl (configuration not stated)
1110 s | CCN(CC)c1nc2cc(C(=O)OC)ccc2c(=O)n1-c1ccccc1
727 s | CN(C)S(=O)(=O)c1ccc(-c2nnc(C(=O)N3CCCC3)o2)cc1
650 s | O=C(NCCNC(=O)c1ccc2c(c1)OCO2)c1ccc(NC(=O)C2CC2)cc1
704 s | COc1ccc(-c2cn3c(CC(=O)Nc4cccc(C#N)c4)csc3n2)cc1OC

RP-LC retention time | SMILES
578 s | CCN(CC)CCNC(=O)CCC(=O)N1CCc2c(c(C(=O)N3CCCC3)nn2C)C1
949 s | CCOc1ccc(-c2ccc(=O)n(Cc3nc(-c4cccc(OC)c4)no3)n2)cc1
883 s | COC(=O)C(=Cc1ccccc1[N+](=O)[O-])C(=O)OC
929 s | O=C(Nc1ccc2c(c1)OCO2)c1cccc2c1CCN2C(=O)Nc1ccc(F)cc1
703 s | Cn1nc2ccc(S(=O)(=O)N3CCCCC3)cn2c1=O
710 s | COCCNC(=O)C1CCN(S(C)(=O)=O)c2cc(Cl)ccc2O1 (configuration not stated)
701 s | O=c1ccnc(Nc2ccc(Cl)cc2)[nH]1
749 s | COC(=O)c1cc(-c2cccc(N)c2)nc2ccccc12
676 s | Cc1cccc(N2CCN(C(=O)c3ccc(Cn4cncn4)cc3)CC2C)c1 (configuration not stated)
1260 s | O=C(C1CCCN(c2nccnc2Sc2ccccc2)C1)N1CCN(c2cccc(Cl)c2)CC1 (configuration not stated)
1320 s | Cc1ccc(-c2csc(Cc3nc(-c4ccc(C)cc4)no3)n2)cc1
781 s | CCN1C(=O)CCC2(C(=O)Nc3ccc(C)cc3)CCCC=C12 (configuration not stated)
573 s | COc1ccc(CC(=O)NCC(c2ccsc2)N2CCc3ccccc3C2)cc1OC (configuration not stated)
1280 s | CCCc1ccc(S(=O)(=O)N2CCC(c3noc(-c4cccc(OC)c4)n3)CC2)cc1
677 s | O=C1Nc2cc(C(=O)N3CCN(C(=O)c4ccco4)CC3)ccc2N2CCCCC12 (configuration not stated)
710 s | CC1=CC2(C)NC(=O)C(C)C12 (configuration not stated)
807 s | COC(=O)CNC(=O)c1cc2c(=O)n(CC(C)C)c3ccccc3n2n1
575 s | CCc1cc(C2CCCN2Cc2cc(OC)c(O)c(OC)c2)on1 (configuration not stated)

SMILES | RP-LC retention time
Fc1ccc(CN2CC(F)(F)C[C@H]2COc2cccnc2)c(Cl)c1 | 870 s
